From patent EP1247803A2, “Indolinone compounds suitable for modulation of protein kinases” (Sugen, Inc., priority 1996, dated 1998)

Key:
FLK-1 receptor = molecular target: T1, FLK-1 receptor (Mus musculus, UniProt P35918); assay: FLK-1 ELISA (kinase activity of the FLK-1 receptor in FLK-1/NIH3T3 cells, VEGF stimulated); assay type: cell-based
T1 construct: expressed in transfected cells; host or cells: NIH3T3 C7#3
Procedure, shortened: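 NIH3T3 C7#3 cells expressing FLK-1 were seeded at 25.000 cells/well, serum-starved overnight in 0.1% FBS, then treated with compound for two hours at 37°C (final DMSO 0.5%) before VEGF stimulation. Receptor was captured on anti-rabbit IgG-coated ELISA plates bearing affinity-purified anti-FLK-1 antiserum.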

MET = MET biochemical kinase assay; set-up: species or system human; concentration or dose not given beside the values
Procedure, shortened: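 In this format, tyrosine phosphorylation of plate-captured human MET is followed in vitro after compound addition in ATP/divalent-cation buffer, detected by anti-phosphotyrosine-HRP with TMB substrate.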

T1 sequence (P35918 20-1345): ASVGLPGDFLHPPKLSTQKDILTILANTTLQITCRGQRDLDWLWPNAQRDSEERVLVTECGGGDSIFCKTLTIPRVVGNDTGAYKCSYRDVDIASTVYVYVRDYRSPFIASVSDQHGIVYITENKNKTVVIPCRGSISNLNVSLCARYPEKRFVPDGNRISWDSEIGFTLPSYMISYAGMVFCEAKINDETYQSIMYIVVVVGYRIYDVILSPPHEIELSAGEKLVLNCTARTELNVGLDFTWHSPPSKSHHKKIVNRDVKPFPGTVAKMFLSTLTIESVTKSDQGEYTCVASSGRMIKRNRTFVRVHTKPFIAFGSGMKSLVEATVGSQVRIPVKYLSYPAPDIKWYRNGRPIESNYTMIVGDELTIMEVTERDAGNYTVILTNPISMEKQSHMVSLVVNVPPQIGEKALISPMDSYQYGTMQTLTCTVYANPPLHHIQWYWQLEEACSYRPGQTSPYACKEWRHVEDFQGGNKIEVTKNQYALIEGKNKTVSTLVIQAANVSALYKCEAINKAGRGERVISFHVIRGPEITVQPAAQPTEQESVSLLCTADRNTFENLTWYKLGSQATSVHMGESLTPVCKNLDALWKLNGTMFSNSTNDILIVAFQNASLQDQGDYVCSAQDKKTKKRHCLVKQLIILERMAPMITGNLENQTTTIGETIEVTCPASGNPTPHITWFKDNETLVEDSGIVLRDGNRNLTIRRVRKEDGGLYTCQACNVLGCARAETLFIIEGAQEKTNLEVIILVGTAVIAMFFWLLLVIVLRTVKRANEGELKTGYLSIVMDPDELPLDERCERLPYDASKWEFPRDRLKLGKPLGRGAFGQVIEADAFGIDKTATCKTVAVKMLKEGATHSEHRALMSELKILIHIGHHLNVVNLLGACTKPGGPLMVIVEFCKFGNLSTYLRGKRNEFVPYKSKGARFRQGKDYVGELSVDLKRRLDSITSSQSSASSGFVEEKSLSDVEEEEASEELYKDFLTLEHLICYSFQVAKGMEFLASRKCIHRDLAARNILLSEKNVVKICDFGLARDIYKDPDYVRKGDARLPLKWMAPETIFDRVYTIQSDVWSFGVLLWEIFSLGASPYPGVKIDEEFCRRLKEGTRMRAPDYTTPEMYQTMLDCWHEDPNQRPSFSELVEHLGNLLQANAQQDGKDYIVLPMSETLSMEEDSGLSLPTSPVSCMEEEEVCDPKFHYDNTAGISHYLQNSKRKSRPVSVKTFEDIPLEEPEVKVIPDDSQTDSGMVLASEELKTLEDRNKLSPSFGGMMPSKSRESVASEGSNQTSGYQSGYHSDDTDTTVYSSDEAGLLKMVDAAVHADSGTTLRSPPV

With `O=C1Nc2ccc(S(=O)(=O)Nc3ccc(C(F)(F)F)cc3)cc2C1=Cc1ccc(Br)s1` [10734/E11] the “Fik Kinase %Inhibition” value (FLK-1 receptor) was 19.2% and the “Met Kinase % Inhibition” value (MET) was 67.1%.

For `CCOc1cccc(C=C2C(=O)Nc3ccc(S(=O)(=O)N4CCOCC4)cc32)c1O` [10734/F02], the “Fik Kinase %Inhibition” value (FLK-1 receptor) was 6.2% and the “Met Kinase % Inhibition” value (MET) was 55.0%.

`O=C1Nc2ccc(S(=O)(=O)N3CCOCC3)cc2C1=Cc1cc(Cl)cc(Cl)c1O` [10734/F03] was tested, and the “Fik Kinase %Inhibition” value (FLK-1 receptor) was 4.2% and the “Met Kinase % Inhibition” value (MET) was 86.8%.

In the case of `O=C1Nc2ccc(S(=O)(=O)N3CCOCC3)cc2C1=Cc1cc(Cl)ccc1O` [10734/F04], the “Fik Kinase %Inhibition” value (FLK-1 receptor) is reported as -2.6% and the “Met Kinase % Inhibition” value (MET) is reported as 76.5%.

In the case of `CCN(CC)c1ccc(C=C2C(=O)Nc3ccc(S(=O)(=O)N4CCOCC4)cc32)c(O)c1` [10734/F05], the “Fik Kinase %Inhibition” value (FLK-1 receptor) is reported as 9.8% and the “Met Kinase % Inhibition” value (MET) is reported as 73.8%.

In the case of `O=C1Nc2ccc(S(=O)(=O)N3CCOCC3)cc2C1=Cc1ccc([N+](=O)[O-])cc1` [10734/F06], the “Fik Kinase %Inhibition” value (FLK-1 receptor) is reported as 11.0% and the “Met Kinase % Inhibition” value (MET) is reported as 64.2%.

`O=C1Nc2ccc(S(=O)(=O)N3CCOCC3)cc2C1=Cc1cc(Br)cc(Br)c1O` [10734/F07] was tested, and the “Fik Kinase %Inhibition” value (FLK-1 receptor) was 6.6% and the “Met Kinase % Inhibition” value (MET) was 95.7%.

`O=C1Nc2ccc(S(=O)(=O)N3CCOCC3)cc2C1=Cc1cccc(F)c1O` [10734/F08] was tested, and the “Fik Kinase %Inhibition” value (FLK-1 receptor) was 4.8% and the “Met Kinase % Inhibition” value (MET) was 66.3%.

`O=C1Nc2ccc(S(=O)(=O)N3CCOCC3)cc2C1=Cc1ccc(O)c(Br)c1` [10734/F09] was tested, and the “Fik Kinase %Inhibition” value (FLK-1 receptor) was -3.7% and the “Met Kinase % Inhibition” value (MET) was 93.9%.

For `CC(C)(C)c1ccc(C=C2C(=O)Nc3ccc(S(=O)(=O)N4CCOCC4)cc32)cc1` [10734/F10], the “Fik Kinase %Inhibition” value (FLK-1 receptor) was 14.8% and the “Met Kinase % Inhibition” value (MET) was 44.8%.

For `CCOc1cccc(C=C2C(=O)Nc3ccc(CCCl)cc32)c1O` [10734/G02], the “Fik Kinase %Inhibition” value (FLK-1 receptor) was 1.5% and the “Met Kinase % Inhibition” value (MET) was 63.6%.

`O=C1Nc2ccc(CCCl)cc2C1=Cc1cc(Cl)cc(Cl)c1O` [10734/G03] was tested, and the “Fik Kinase %Inhibition” value (FLK-1 receptor) was 18.7% and the “Met Kinase % Inhibition” value (MET) was 93.4%.

`O=C1Nc2ccc(CCCl)cc2C1=Cc1cc(Cl)ccc1O` [10734/G04] was tested, and the “Fik Kinase %Inhibition” value (FLK-1 receptor) was -1.1% and the “Met Kinase % Inhibition” value (MET) was 72.1%.

With `CCN(CC)c1ccc(C=C2C(=O)Nc3ccc(CCCl)cc32)c(O)c1` [10734/G05] the “Fik Kinase %Inhibition” value (FLK-1 receptor) was 7.4% and the “Met Kinase % Inhibition” value (MET) was 57.7%.

In the case of `O=C1Nc2ccc(CCCl)cc2C1=Cc1ccc([N+](=O)[O-])cc1` [10734/G06], the “Fik Kinase %Inhibition” value (FLK-1 receptor) is reported as 16.5% and the “Met Kinase % Inhibition” value (MET) is reported as 43.1%.

In the case of `O=C1Nc2ccc(CCCl)cc2C1=Cc1cc(Br)cc(Br)c1O` [10734/G07], the “Fik Kinase %Inhibition” value (FLK-1 receptor) is reported as 21.9% and the “Met Kinase % Inhibition” value (MET) is reported as 96.6%.

With `O=C1Nc2ccc(CCCl)cc2C1=Cc1cccc(F)c1O` [10734/G08] the “Fik Kinase %Inhibition” value (FLK-1 receptor) was 11.6% and the “Met Kinase % Inhibition” value (MET) was 82.2%.

For `O=C1Nc2ccc(CCCl)cc2C1=Cc1ccc(O)c(Br)c1` [10734/G09], the “Fik Kinase %Inhibition” value (FLK-1 receptor) was 8.5% and the “Met Kinase % Inhibition” value (MET) was 84.7%.

For `CC(C)(C)c1ccc(C=C2C(=O)Nc3ccc(CCCl)cc32)cc1` [10734/G10], the “Fik Kinase %Inhibition” value (FLK-1 receptor) was 10.8% and the “Met Kinase % Inhibition” value (MET) was 19.3%.

In the case of `O=C1Nc2ccc(CCCl)cc2C1=Cc1ccc(Br)s1` [10734/G11], the “Fik Kinase %Inhibition” value (FLK-1 receptor) is reported as 8.7% and the “Met Kinase % Inhibition” value (MET) is reported as 20.2%.
